# Results as given in patent publication US8236808B2, “Pyrazine derivatives as ENAC blockers” (Novartis AG, priority 2008, dated 2012).
# Counter-ions that a name gives are not always drawn.
# Target: T1, epithelial sodium channel (ENaC) (Homo sapiens, UniProt P37088+P51168+P51170)
# T1 construct: host or cells: primary human bronchial epithelial cells (HBECs), differentiated at the air-liquid interface
# T1 sequence (P37088 1-669): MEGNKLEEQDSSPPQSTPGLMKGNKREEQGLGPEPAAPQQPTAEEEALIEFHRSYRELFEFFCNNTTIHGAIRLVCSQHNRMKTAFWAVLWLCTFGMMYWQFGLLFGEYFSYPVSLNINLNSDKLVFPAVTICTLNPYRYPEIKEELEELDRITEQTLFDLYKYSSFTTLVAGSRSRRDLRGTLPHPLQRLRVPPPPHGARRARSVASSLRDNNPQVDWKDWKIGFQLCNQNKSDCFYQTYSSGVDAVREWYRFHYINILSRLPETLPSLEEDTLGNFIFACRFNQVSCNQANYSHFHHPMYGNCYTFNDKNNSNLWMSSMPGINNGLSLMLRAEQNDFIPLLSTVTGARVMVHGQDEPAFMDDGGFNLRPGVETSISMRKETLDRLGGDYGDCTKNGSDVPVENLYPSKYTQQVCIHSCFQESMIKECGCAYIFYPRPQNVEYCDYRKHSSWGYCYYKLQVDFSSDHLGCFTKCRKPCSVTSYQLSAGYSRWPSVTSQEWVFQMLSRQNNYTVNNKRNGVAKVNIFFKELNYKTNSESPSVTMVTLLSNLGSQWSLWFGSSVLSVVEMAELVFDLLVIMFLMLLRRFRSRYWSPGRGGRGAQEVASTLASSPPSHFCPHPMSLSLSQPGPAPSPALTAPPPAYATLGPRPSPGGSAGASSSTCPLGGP
# T1 sequence (P51168 1-640): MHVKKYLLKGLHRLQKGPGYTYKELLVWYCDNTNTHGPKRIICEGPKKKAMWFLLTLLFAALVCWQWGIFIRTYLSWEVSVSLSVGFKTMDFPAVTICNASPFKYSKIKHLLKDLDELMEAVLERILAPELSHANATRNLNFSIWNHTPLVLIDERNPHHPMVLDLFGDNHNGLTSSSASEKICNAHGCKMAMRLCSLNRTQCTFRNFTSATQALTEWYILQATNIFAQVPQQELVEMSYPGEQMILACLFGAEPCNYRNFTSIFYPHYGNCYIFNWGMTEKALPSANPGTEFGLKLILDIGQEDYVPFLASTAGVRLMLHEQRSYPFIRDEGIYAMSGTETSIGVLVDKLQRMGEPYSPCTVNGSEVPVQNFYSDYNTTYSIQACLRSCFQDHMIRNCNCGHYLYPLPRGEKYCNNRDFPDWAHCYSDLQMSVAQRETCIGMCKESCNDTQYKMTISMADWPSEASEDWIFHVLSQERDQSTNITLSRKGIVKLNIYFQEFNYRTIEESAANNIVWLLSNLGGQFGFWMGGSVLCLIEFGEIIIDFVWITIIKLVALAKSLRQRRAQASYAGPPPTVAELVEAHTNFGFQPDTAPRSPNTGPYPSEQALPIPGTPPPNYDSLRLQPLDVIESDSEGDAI
# T1 sequence (P51170 1-649): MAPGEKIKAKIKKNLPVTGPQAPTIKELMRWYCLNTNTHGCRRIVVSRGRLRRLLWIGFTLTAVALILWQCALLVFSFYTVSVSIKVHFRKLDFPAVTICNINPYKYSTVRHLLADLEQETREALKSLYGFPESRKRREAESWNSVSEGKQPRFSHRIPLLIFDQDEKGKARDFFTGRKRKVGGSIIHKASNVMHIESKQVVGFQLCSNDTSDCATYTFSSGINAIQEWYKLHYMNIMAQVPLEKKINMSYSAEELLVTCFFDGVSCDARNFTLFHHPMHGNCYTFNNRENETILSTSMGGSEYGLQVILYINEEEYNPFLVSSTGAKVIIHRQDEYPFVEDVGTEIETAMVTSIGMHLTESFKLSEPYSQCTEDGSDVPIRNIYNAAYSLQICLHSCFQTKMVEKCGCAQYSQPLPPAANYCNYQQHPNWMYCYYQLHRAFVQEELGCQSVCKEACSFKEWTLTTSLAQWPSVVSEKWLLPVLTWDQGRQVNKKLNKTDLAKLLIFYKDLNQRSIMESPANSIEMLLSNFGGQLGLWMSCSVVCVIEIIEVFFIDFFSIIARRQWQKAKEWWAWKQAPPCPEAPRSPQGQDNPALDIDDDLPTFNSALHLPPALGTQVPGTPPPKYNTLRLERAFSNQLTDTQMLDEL
# Assay: Short circuit current (ISC) measurements in human bronchial epithelial cells, inhibition of amiloride-sensitive ISC
# Assay type: cell-based
# Details: inhibition of the amiloride-sensitive ISC; HBECs cultured at air-liquid interface, Ussing chamber, compound added to apical chamber
# Description: Compounds of formula (I), hereinafter referred to alternatively as “agents of the invention”, are useful as pharmaceuticals. In particular, the compounds have good ENaC blocker activity and may be tested in the following assays.
# Human Bronchial Epithelial cells (HBECs) (Cambrex) were cultured under air-liquid interface conditions to provide a well differentiated mucociliary phenotype.
# HBECs were cultured using a modification of the method described by Gray and colleagues (Gray et al., 1996). Cells were seeded in plastic T-162 flasks and were grown in bronchial epithelial cell growth medium (BEGM; Cambrex) supplemented with bovine pituitary extract (52 μg/mL), hydrocortisone (0.5 μg/mL), human recombinant epidermal growth factor (0.5 ng/mL), epinephrine (0.5 μg/mL), transferrin (10 μg/mL), insulin (5 μg/mL), retinoic acid (0.1 μg/mL), triiodothyronine ([…]), gentamycin (50 μg/mL) and amphotericin B (50 ng/mL). Medium was changed every 48 hours until cells were 90% confluent. Cells were then passaged and seeded (8.25×10^5 cells/insert) on polycarbonate Snapwell inserts (Costar) in differentiation media containing 50% DMEM in BEGM with the same supplements as above but without triiodothyronine and a final retinoic acid concentration of 50 nM (all-trans retinoic acid). Cells were maintained submerged for the first 7 days in culture, after which time they were exposed to an apical air interface for the remainder of the culture period. At this time, media was changed to DMEM:F12 media containing 2% v/v Ultroser G for the remainder of culture. Amphotericin B was removed from all media 3 feeds prior to use in the Ussing Chambers. Cells were used between days 7 and 21 after establishment of the apical-air interface. At all stages of culture, cells were maintained at 37° C. in 5% CO2 in an air incubator.
# Snapwell inserts were mounted in Vertical Diffusion Chambers (Costar) and were bathed with continuously gassed Ringer solution (5% CO2 in O2; pH 7.4) maintained at 37° C. containing (in mM): 120 NaCl, 25 NaHCO3, 3.3 KH2PO4, 0.8 K2HPO4, 1.2 CaCl2, 1.2 MgCl2, and 10 glucose. The solution osmolarity was between 280 and 300 mOsmol/kg H2O for all physiological salt solutions used. Cells were voltage clamped to 0 mV (model EVC4000; WPI). RT was measured by applying a 1- or 2-mV pulse at 30-s intervals and calculating RT by Ohm's law. Data were recorded using a PowerLab workstation (ADInstruments).
# Test compounds were prepared as a 10 mM stock solution in DMSO (95%). Serial 3-fold dilutions were freshly prepared in an appropriate vehicle (distilled H2O or Ringers solution). The initial concentration was added to the apical chamber as a 1000× concentrate in 5 μL, resulting in a final 1× concentration the 5 mL volume of the Ussing chamber. Subsequent additions of compound were added in a 3.3 μL volume of the 1000× serially diluted stock solution. At the completion of the concentration-response experiment, amiloride (10 μM) was added into the apical chamber to enable the total amiloride-sensitive current to be measured. An amiloride control IC50 was established at the start of each experiment.
# Results are expressed as the mean % inhibition of the amiloride-sensitive ISC. Concentration-response curves were plotted and IC50 values generated using GraphPad Prism 3.02. Cell inserts were typically run in duplicate and the IC50 calculated on the mean % inhibition data.
row,IC50,SMILES
1,0.25 µM,"CCC[C@H](CNC(=O)c1nc(Cl)c(N)nc1N)[N+](C)(C)C [Example 1, ((R)-1-{[(3,5-Diamino-6-chloro-pyrazine-2-carbonyl)-amino]-methyl}-butyl)-trimethyl-ammonium iodide]"
2,0.02 µM,"CCC[C@@H](CNC(=O)c1nc(Cl)c(N)nc1N)[N+](C)(C)C [Example 5, ((S)-1-{[(3,5-Diamino-6-chloro-pyrazine-2-carbonyl)-amino]-methyl}-butyl)-trimethyl-ammonium trifluoroacetate]"
3,3.46 µM,"C[N+](C)(C)C1(CNC(=O)c2nc(Cl)c(N)nc2N)CCCC1 [Example 9, (1-{[(3,5-Diamino-6-chloro-pyrazine-2-carbonyl)-amino]-methyl}-cyclopentyl)-trimethyl-ammonium iodide]"
4,5.32 µM,"C[N+]1(C)CCC[C@@H]1CNC(=O)c1nc(Cl)c(N)nc1N [Example 11, (R)-2-{[(3,5-Diamino-6-chloro-pyrazine-2-carbonyl)-amino]-methyl}-1,1-dimethyl-pyrrolidinium iodide]"
5,0.17 µM,"C[N+](C)(C)[C@H](CNC(=O)c1nc(Cl)c(N)nc1N)Cc1ccccc1 [Example 13, {(S)-1-Benzyl-2-[(3,5-diamino-6-chloro-pyrazine-2-carbonyl)-amino]-ethyl}-trimethyl-ammonium iodide]"
6,0.046 µM,"C[N+](C)(C)[C@@H](CCCCNC(=O)CCc1ccc(OCc2ccccc2)cc1)CNC(=O)c1nc(Cl)c(N)nc1N [Example 14, ((S)-5-[3-(4-Benzyloxy-phenyl)-propionylamino]-1-{[(3,5-diamino-6-chloro-pyrazine-2-carbonyl)-amino]-methyl}-pentyl)-trimethyl-ammonium iodide]"
7,0.052 µM,"C[N+](C)(C)[C@@H](CCCCNC(=O)Cc1ccc(OCc2ccccc2)cc1)CNC(=O)c1nc(Cl)c(N)nc1N [Example 15, ((S)-5-[2-(4-Benzyloxy-phenyl)-acetylamino]-1-{[(3,5-diamino-6-chloro-pyrazine-2-carbonyl)-amino]-methyl}-pentyl)-trimethyl-ammonium iodide]"
8,0.64 µM,"C[N+]1(CCNC(=O)c2nc(Cl)c(N)nc2N)CCC(Cc2ccccc2)CC1 (stereo not drawn) [Example 16, 4-Benzyl-1-{2-[(3,5-diamino-6-chloro-pyrazine-2-carbonyl)-amino]-ethyl}-1-methyl-piperidinium iodide]"
9,0.0075 µM,"C=CC[N+](CCCc1ccc(OC)cc1)(CCCc1ccc(OC)cc1)CCNC(=O)c1nc(Cl)c(N)nc1N [Example 17, Allyl-{2-[(3,5-diamino-6-chloro-pyrazine-2-carbonyl)-amino]-ethyl}-bis-[3-(4-methoxy-phenyl)-propyl]-ammonium trifluoroacetate]"
10,0.037 µM,"COc1ccc(CCC[N+](CCCc2ccc(OC)cc2)(CCCc2ccc(OC)cc2)CCNC(=O)c2nc(Cl)c(N)nc2N)cc1 [Example 18, {2-[(3,5-Diamino-6-chloro-pyrazine-2-carbonyl)-amino]-ethyl}-tris-[3-(4-methoxy-phenyl)-propyl]-ammonium trifluoroacetate]"
11,0.02 µM,"CCN(CC)CC[N+](CCCc1ccc(OC)cc1)(CCCc1ccc(OC)cc1)CCNC(=O)c1nc(Cl)c(N)nc1N [Example 19, {2-[(3,5-Diamino-6-chloro-pyrazine-2-carbonyl)-amino]-ethyl}-(2-diethylamino-ethyl)-bis-[3-(4-methoxy-phenyl)-propyl]-ammonium trifluoroacetate]"
12,0.002 µM,"COc1ccc(CCC[N+](C)(CCCc2ccc(OC)cc2)CCNC(=O)c2nc(Cl)c(N)nc2N)cc1 [Example 20, {2-[(3,5-diamino-6-chloro-pyrazine-2-carbonyl)-amino]-ethyl}-bis-[3-(4-methoxy-phenyl)-propyl]-methyl-ammonium trifluoroacetate]"
13,5.69 µM,"CCC[N+](CCCc1ccc(OC)cc1)(CCCc1ccc(OC)cc1)CCNC(=O)c1nc(Cl)c(N)nc1N [Example 21, {2-[(3,5-Diamino-6-chloro-pyrazine-2-carbonyl)-amino]-ethyl}-bis-[3-(4-methoxy-phenyl)-propyl]-propyl-ammonium trifluoroacetate]"
14,0.051 µM,"COc1ccc(CCC[N+](CCCc2ccc(OC)cc2)(CCNC(=O)c2nc(Cl)c(N)nc2N)CC(N)=O)cc1 [Example 22, Carbamoylmethyl-{2-[(3,5-diamino-6-chloro-pyrazine-2-carbonyl)-amino]-ethyl}-bis-[3-(4-methoxy-phenyl)-propyl]-ammonium trifluoroacetate]"
15,0.034 µM,"COc1ccc(CCC[N+](CCCc2ccc(OC)cc2)(CCNC(=O)c2nc(Cl)c(N)nc2N)Cc2ccccc2)cc1 [Example 23, Benzyl-{2-[(3,5-diamino-6-chloro-pyrazine-2-carbonyl)-amino]-ethyl}-bis-[3-(4-methoxy-phenyl)-propyl]-ammonium trifluoroacetate]"
